Assays:
Type in all cases: cell-based, human
[1] = test system: autologous T cells of healthy donors; parameters: key: +: positive response
[2] = test system: autologous T cells of healthy donors; parameters: key: +: positive response; remark: listed apart in the source
[3] = test system: autologous T cells of healthy donors; parameters: key: +: positive response; remark: listed apart in the source
[4] = test system: autologous T cells of healthy donors; parameters: key: +: positive response; remark: listed apart in the source
[5] = test system: PBMC from SARS-CoV-2 convalescent donors

Sequence | positive response detected on two time points with the same assay [1] | Proliferation [2] | ELISA [3] | ELISpot [4] | positive response detected on one time point with two different assays [1] | IFNγ ELISpot response [5] | immunogenicity compared to the other SLPs [5]
PLVDLPIGINITRFQTLLALHRSYLTPGDSSSG [SLP 32] | + | + | + |  |  |  | 
ALNTLVKQLSSNFGAISSVLNDILSRLDKV [SLP 9] |  | + | + | + | + |  | 
IRQGTDYKHWPQIAQFAPSASAFFG [SLP 46] |  |  |  |  |  | high responses | remarkably immunogenic
GNGGDAALALLLLDRLNQLESKMSGKGQ [SLP 39] | + | + | + | + | + |  | 
LFARTRSMWSFNPETNILLNV [SLP 19] | + | + | + |  | + | high responses | 
